Measured values taken from the supplement of paper PMC10307832.

What was measured:
BGJ398 = compound: CCN1CCN(c2ccc(Nc3cc(N(C)C(=O)Nc4c(Cl)c(OC)cc(OC)c4Cl)ncn3)cc2)CC1 [BGJ398]; experiment: relative viability (nuclei count vs DMSO), 5 days (fraction); higher = more cells survive
In short: (§1)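 Viability was read as treated-well nuclei divided by vehicle-well nuclei, using the median across plates. Lung cancer cell lines in 1536-well plates were kept overnight at 37 °C, pinned with five √10-spaced library-drug doses, and after 5 days were Hoechst-stained, imaged at 4× and counted in MetaXpress. Plates passed only with control CV below 25% and at least one doubling.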

[1] = compound: C1=CC2=NC=CN=C2C=C1/C=C/3\C(=O)NC(=O)S3; experiment: as above
In short: as §1

Cell Line | relative viability (BGJ398; 0.01 µM) | relative viability (BGJ398; 0.03162 µM) | relative viability (BGJ398; 0.1 µM) | relative viability (BGJ398; 0.3162 µM) | relative viability (BGJ398; 1 µM) | relative viability ([1]; 0.02 µM) | relative viability ([1]; 0.06325 µM) | relative viability ([1]; 0.2 µM) | relative viability ([1]; 0.6325 µM) | relative viability ([1]; 2 µM)
NCI-H2228 | 0.814 | 1.18 | 1.38 | 0.876 | 0.963 | 0.898 | 1.06 | 1.22 | 0.898 | 0.842
NCI-H2342 | 0.998 | 0.96 | 0.934 | 1.02 | 1.11 | 0.832 | 1.01 | 0.989 | 0.904 | 0.803
NCI-H2347 | 0.957 | 1.09 | 1.06 | 1.04 | 0.94 | 0.971 | 0.913 | 1 | 1 | 0.918
NCI-H2405 | 1.04 | 1.11 | 0.99 | 1.01 | 0.958 | 1.08 | 1.02 | 1.02 | 1.01 | 0.394
NCI-H3122 | 0.934 | 1.01 | 1.04 | 0.977 | 1.01 | 1 | 1.04 | 0.975 | 0.949 | 0.984
PC-3 [JPC-3] | 1.05 | – | 1.05 | 0.695 | 0.919 | 0.991 | 1.07 | 1.06 | 1 | 1.04
PC-14 | 1.01 | 0.732 | 1.04 | 0.766 | 0.93 | 1.02 | 1.02 | 1.01 | 0.982 | 0.989
RERF-LC-KJ | 1.04 | 1.05 | 1.06 | 0.987 | 1.05 | 0.908 | 1.02 | 1 | 0.948 | 0.841
SK-LU-1 | 0.983 | 1.07 | 1.22 | 0.978 | 1.03 | 1.06 | 1.21 | 1.09 | 1.02 | 0.969
SK-MES-1 | 0.941 | 1.05 | 1.05 | 0.981 | 1.01 | 0.971 | 1.08 | 1.02 | 0.984 | 0.875
SW 900 | 1 | 0.899 | 0.779 | 0.428 | 0.453 | 0.888 | 0.978 | 1.04 | 0.705 | 0.965
SW 1573 | 0.975 | 0.934 | 0.94 | 0.893 | 0.999 | 0.984 | 1.26 | 1.09 | 0.948 | 0.79
